Measured values published in patent publication US20170190705A1, “Compositions and Methods for Inhibiting BMP” (THE BRIGHAM AND WOMAN'S HOSPITAL, INC., priority 2014, published 2017).
Read-outs that look alike come from different tables or passages of the source.

Assays:
Format in all cases: biochemical
MAP4K4 = MAP4K4 (Homo sapiens, UniProt O95819); assay: Kinome profiling MAP4K4; settings: for inhibition at 0.1 µM: 100 nM
Procedure: (§1) . The kinome-wide selectivity was determined following the methods previously reported by Mohedas et al., ACS Chem Biol 2013, 8, 1291-1302 and Sanvitale et al., PLoS One 2013, 8, e62721.

PDGFRβ = PDGFRβ (Homo sapiens, UniProt P09619); assay: Kinome profiling PDGFRβ; settings: for inhibition at 0.1 µM: 100 nM
Chain of PDGFRβ (P09619 33-1106): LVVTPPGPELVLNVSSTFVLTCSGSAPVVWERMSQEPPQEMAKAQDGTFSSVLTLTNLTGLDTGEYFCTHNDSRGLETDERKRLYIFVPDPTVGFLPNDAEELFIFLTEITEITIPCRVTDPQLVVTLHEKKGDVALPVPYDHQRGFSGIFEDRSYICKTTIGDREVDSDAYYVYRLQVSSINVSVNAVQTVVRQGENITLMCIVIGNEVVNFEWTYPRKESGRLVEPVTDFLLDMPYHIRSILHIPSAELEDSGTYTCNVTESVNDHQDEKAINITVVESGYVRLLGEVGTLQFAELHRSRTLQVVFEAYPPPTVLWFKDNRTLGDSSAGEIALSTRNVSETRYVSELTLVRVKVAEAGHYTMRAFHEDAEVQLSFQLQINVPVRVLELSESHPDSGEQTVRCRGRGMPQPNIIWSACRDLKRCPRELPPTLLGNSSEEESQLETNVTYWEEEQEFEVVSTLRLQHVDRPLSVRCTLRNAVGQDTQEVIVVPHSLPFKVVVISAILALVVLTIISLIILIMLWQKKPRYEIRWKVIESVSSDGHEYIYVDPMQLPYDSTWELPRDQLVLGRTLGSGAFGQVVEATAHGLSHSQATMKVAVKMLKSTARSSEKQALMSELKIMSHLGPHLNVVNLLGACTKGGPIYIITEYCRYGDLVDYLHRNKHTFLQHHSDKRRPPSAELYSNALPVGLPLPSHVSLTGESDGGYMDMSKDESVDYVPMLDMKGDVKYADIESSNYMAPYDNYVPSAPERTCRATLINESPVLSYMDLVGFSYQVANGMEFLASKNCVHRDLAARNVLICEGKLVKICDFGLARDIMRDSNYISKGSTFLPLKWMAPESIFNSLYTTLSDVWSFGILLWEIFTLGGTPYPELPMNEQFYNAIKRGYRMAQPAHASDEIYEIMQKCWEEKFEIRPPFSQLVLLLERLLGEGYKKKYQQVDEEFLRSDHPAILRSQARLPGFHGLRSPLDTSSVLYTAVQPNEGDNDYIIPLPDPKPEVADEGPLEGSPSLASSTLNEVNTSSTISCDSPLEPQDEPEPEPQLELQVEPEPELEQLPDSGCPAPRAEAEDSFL
Procedure: as §1

P70S6KB1 = P70S6KB1 (Homo sapiens, UniProt P23443); assay: Kinome profiling P70S6KB1; settings: read-out: Inhibitory activity P70S6KB1; for inhibition at 0.1 µM: 100 nM
Chain of P70S6KB1 (P23443 whole entry): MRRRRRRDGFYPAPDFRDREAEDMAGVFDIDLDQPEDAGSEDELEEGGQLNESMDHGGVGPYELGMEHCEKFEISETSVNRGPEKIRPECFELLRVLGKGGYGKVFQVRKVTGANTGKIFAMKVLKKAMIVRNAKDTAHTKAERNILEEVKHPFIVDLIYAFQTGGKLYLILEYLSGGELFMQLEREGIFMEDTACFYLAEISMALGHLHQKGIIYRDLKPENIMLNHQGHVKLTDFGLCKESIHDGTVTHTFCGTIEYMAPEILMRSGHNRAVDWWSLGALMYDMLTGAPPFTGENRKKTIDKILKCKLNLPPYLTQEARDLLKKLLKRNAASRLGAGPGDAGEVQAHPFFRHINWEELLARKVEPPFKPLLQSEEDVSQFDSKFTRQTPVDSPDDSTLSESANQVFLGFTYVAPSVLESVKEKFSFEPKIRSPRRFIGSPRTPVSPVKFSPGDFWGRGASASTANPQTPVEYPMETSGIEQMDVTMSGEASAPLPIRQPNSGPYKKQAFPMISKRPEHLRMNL
Procedure: as §1

TSSK2 = biological target: T1, TSSK2 (Homo sapiens, UniProt Q96PF2); assay: Kinome profiling TSSK2; settings: read-out: Inhibitory activity TSSK2; for inhibition at 0.1 µM: 100 nM
T1 sequence (Q96PF2 1-358): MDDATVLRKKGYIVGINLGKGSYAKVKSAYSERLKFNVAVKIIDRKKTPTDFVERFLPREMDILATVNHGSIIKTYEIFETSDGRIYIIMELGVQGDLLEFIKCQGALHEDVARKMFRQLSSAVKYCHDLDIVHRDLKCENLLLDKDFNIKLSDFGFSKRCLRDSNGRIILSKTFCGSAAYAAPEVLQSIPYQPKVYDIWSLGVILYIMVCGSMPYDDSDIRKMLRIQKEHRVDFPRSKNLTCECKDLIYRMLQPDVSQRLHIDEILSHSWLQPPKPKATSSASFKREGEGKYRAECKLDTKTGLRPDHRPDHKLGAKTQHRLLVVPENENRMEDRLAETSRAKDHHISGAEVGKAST
Procedure: as §1

P38β = P38β (Homo sapiens, UniProt Q15759); assay: Kinome profiling P38β; settings: read-out: Inhibitory activity P38β; for inhibition at 0.1 µM: 100 nM
Chain of P38β (Q15759 whole entry): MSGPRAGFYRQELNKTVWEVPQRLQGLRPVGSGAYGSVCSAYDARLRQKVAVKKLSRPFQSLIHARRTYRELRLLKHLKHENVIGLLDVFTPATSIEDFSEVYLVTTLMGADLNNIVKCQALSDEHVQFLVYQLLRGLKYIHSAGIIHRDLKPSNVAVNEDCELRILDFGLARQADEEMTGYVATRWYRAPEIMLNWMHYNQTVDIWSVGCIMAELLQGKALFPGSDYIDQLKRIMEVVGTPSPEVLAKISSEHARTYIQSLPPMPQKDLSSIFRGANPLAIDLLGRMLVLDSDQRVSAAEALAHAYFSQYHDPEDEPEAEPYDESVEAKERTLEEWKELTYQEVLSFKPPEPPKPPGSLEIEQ
Procedure: as §1

P38δ = biological target: T2, P38δ (Homo sapiens, UniProt O15264); assay: Kinome profiling P38δ; settings: read-out: Inhibitory activity P38δ; for inhibition at 0.1 µM: 100 nM
T2 sequence (O15264 1-365): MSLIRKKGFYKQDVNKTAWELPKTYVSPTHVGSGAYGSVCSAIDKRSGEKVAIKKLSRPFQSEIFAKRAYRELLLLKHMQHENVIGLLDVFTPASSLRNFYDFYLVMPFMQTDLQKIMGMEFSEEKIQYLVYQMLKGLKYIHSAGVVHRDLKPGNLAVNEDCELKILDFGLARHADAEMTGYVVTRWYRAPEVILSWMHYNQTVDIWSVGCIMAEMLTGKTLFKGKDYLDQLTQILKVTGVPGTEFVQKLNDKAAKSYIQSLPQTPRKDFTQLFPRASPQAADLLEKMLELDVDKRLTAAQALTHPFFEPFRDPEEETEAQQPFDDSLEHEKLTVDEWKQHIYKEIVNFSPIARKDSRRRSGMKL
Procedure: as §1

AXL = biological target: T3, AXL (Homo sapiens, UniProt P30530); assay: Kinome profiling AXL; settings: read-out: Inhibitory activity AXL; for inhibition at 0.1 µM: 100 nM
T3 sequence (P30530 26-894): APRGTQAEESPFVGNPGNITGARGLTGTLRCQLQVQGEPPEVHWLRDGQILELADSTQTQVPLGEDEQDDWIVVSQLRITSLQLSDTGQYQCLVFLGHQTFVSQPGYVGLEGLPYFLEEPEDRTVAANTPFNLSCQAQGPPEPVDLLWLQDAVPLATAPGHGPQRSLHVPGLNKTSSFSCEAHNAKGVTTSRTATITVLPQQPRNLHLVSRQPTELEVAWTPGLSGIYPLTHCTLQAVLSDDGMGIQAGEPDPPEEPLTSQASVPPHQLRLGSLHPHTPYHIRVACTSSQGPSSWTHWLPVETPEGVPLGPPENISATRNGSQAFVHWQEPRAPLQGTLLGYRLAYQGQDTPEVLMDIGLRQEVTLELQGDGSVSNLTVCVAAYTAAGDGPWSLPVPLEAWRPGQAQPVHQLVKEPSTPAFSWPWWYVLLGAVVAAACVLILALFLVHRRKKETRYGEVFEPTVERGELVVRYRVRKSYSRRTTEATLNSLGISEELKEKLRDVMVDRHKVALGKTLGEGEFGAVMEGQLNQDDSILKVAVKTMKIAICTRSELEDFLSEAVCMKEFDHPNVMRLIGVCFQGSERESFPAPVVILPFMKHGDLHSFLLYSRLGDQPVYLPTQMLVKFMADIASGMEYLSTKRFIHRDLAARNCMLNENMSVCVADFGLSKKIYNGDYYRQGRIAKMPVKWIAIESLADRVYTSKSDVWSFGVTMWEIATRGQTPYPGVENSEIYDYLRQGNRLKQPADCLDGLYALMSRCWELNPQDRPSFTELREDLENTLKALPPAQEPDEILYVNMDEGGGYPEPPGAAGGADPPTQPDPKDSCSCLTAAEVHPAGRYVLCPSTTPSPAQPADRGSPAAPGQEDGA
Procedure: as §1

[1] = Table 4, read-out: Inhibitory Activity MAP4K4
[2] = read-out: Inhibitory activity MAP4K4
[3] = Table 4, read-out: Inhibitory Activity PDGFR-BETA
[4] = read-out: Inhibitory activity PDGFRβ

Chain of MAP4K4 (O95819 whole entry): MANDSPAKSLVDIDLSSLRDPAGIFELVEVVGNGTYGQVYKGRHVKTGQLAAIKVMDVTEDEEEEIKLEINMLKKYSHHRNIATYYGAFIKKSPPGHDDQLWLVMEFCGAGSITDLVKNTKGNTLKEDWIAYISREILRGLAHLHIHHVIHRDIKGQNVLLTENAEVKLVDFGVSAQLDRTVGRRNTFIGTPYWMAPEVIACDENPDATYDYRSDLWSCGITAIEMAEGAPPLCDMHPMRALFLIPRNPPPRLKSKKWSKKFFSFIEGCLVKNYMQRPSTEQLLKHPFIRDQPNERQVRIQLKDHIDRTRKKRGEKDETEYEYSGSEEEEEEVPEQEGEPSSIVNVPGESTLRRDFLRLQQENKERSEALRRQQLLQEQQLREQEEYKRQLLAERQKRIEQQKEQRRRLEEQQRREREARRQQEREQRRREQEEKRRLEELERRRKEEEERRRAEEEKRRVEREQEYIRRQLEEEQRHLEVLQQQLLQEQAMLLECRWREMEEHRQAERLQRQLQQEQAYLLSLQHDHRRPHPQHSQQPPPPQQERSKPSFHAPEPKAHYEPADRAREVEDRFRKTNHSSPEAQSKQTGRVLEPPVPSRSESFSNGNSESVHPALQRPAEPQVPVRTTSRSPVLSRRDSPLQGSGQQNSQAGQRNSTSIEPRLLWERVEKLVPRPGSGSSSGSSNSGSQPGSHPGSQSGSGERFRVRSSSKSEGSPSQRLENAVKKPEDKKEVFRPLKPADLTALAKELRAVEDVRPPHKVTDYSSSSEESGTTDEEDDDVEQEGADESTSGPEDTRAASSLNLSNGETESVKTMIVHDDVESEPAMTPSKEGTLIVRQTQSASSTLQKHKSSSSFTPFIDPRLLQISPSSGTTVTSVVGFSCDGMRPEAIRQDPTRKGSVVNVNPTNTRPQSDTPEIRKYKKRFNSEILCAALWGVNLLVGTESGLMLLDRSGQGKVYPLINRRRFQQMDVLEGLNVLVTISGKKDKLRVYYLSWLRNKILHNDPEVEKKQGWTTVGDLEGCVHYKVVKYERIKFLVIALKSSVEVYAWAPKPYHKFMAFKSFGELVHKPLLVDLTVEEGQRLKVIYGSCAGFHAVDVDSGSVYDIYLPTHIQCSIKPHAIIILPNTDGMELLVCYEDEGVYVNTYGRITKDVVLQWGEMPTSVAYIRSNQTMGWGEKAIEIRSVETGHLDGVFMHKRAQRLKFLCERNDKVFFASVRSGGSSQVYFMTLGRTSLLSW

Row | SMILES | inhibition at 0.1 µM (MAP4K4; [1]) [%] | inhibition at 0.1 µM (MAP4K4; [2]) [%] | inhibition at 1 µM (MAP4K4; [1]) [%] | inhibition at 1 µM (MAP4K4; [2]) [%] | inhibition at 0.1 µM (PDGFRβ; [3]) [%] | inhibition at 0.1 µM (PDGFRβ; [4]) [%] | inhibition at 1 µM (PDGFRβ; [3]) [%] | inhibition at 1 µM (PDGFRβ; [4]) [%] | inhibition at 0.1 µM (P70S6KB1) [%] | inhibition at 1 µM (P70S6KB1) [%] | inhibition at 0.1 µM (TSSK2) [%] | inhibition at 1 µM (TSSK2) [%] | inhibition at 0.1 µM (P38β) [%] | inhibition at 1 µM (P38β) [%] | inhibition at 0.1 µM (P38δ) [%] | inhibition at 1 µM (P38δ) [%] | inhibition at 0.1 µM (AXL) [%] | inhibition at 1 µM (AXL) [%]
1 | COc1cc(-c2cc(-c3ccc(N4CCNCC4)cc3)cnc2C)cc(OC)c1OC [Compound 10, 1-(4-(6-methyl-5-(3,4,5-trimethoxyphenyl)pyridin-3-yl)phenyl)piperazine] | 34 | 34 | 92 | 92 | 17 | 17 | 64 | 64 | 1 | 1 | 4 | 4 | 1 | 11 | 1 | -1 | 1 | 7
2 | COc1cc(-c2cc(-c3ccc(N4CCNCC4)cc3)cnc2N)cc(OC)c1OC [Compound 15, 5-(4-(piperazin-1-yl)phenyl)-3-(3,4,5-trimethoxyphenyl)pyridin-2-amine] | – | 77 | – | 90 | – | 47 | – | 77 | 0 | 0 | 1 | 1 | 10 | 44 | 2 | 1 | -4 | -1
